Test results taken from PubChem BioAssay (NCI).
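Five concentrations, 48 hours, 96-well plates. The concentration for 50% growth inhibition is given as GI50. The concentration for full growth arrest is given as TGI.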

What was measured:
Test in all cases: NCI tumour cell line growth inhibition, 48 h
[1] = test system: UACC-257 melanoma
[2] = test system: SF-268 CNS
[3] = test system: UO-31 renal
[4] = test system: ACHN renal
[5] = test system: OVCAR-5 ovarian
[6] = test system: COLO 205 colon
[7] = test system: DU-145 prostate
[8] = test system: CAKI-1 renal
[9] = test system: M14 melanoma
[10] = test system: OVCAR-4 ovarian
[11] = test system: HCC-2998 colon
[12] = test system: NCI-H226 lung
[13] = test system: MDA-MB-231 breast
[14] = test system: NCI-H23 lung
[15] = test system: HT29 colon
[16] = test system: CCRF-CEM leukemia
[17] = test system: SNB-75 CNS
[18] = test system: PC-3 prostate
[19] = test system: HL-60(TB) leukemia
[20] = test system: OVCAR-8 ovarian
[21] = test system: HOP-92 NSCLC
[22] = test system: RPMI-8226 leukemia
[23] = test system: BT-549 breast
[24] = test system: A549 NSCLC
[25] = test system: SF-295 CNS
[26] = test system: NCI/ADR-RES ovarian
[27] = test system: HOP-62 NSCLC
[28] = test system: SK-OV-3 ovarian
[29] = test system: 786-0 renal
[30] = test system: NCI-H460 lung
[31] = test system: IGROV1 ovarian
[32] = test system: MCF7 breast
[33] = test system: MOLT-4 leukemia
[34] = test system: HS 578T breast
[35] = test system: KM12 colon
[36] = test system: T-47D breast
[37] = test system: SF-539 CNS
[38] = test system: K-562 leukemia
[39] = test system: EKVX NSCLC
[40] = test system: SW-620 colon
[41] = test system: A498 renal
[42] = test system: MDA-MB-435
[43] = test system: RXF 393 renal
[44] = test system: SK-MEL-2 melanoma
[45] = test system: NCI-H522 lung
[46] = test system: UACC-62 melanoma
[47] = test system: HCT-116 colon
[48] = test system: MALME-3M melanoma
[49] = test system: SN12C renal
[50] = test system: OVCAR-3 ovarian
[51] = test system: SNB-19 CNS
[52] = test system: U251 CNS
[53] = test system: HCT-15 colon
[54] = test system: TK-10 renal
[55] = test system: SR leukemia
[56] = test system: SK-MEL-28 melanoma

CN1CC[C@@H](c2c(O)cc(O)c3c(=O)cc(-c4ccccc4Cl)oc23)[C@@H]1CO
GI50 [1]: 296 nM
TGI [1]: 1360 nM
GI50 [2]: 305 nM
TGI [2]: 1380 nM
GI50 [3]: 268 nM
TGI [3]: > 2990 nM
GI50 [4]: 294 nM
TGI [4]: > 10000 nM
GI50 [5]: 287 nM
TGI [5]: > 10000 nM
GI50 [6]: 262 nM
TGI [6]: 785 nM
GI50 [7]: 365 nM
TGI [7]: > 10000 nM
GI50 [8]: 204 nM
TGI [8]: > 2560 nM
GI50 [9]: 331 nM
TGI [9]: 1260 nM
GI50 [10]: 709 nM
TGI [10]: > 9290 nM
GI50 [11]: 360 nM
TGI [11]: 3670 nM
GI50 [12]: 239 nM
TGI [12]: 878 nM
GI50 [13]: 292 nM
TGI [13]: > 10000 nM
GI50 [14]: 288 nM
TGI [14]: 3030 nM
GI50 [15]: 442 nM
TGI [15]: 6660 nM
GI50 [16]: 259 nM
TGI [16]: > 3130 nM
GI50 [17]: 224 nM
TGI [17]: 622 nM
GI50 [18]: 314 nM
TGI [18]: 3640 nM
GI50 [19]: 313 nM
TGI [19]: 1990 nM
GI50 [20]: 321 nM
TGI [20]: > 10000 nM
GI50 [21]: 190 nM
TGI [21]: 701 nM
GI50 [22]: 362 nM
TGI [22]: 2730 nM
GI50 [23]: 380 nM
TGI [23]: 2520 nM
GI50 [24]: 368 nM
TGI [24]: > 10000 nM
GI50 [25]: 335 nM
TGI [25]: > 10000 nM
GI50 [26]: 1570 nM
TGI [26]: > 10000 nM
GI50 [27]: 304 nM
TGI [27]: 1200 nM
GI50 [28]: 1400 nM
TGI [28]: 9910 nM
GI50 [29]: 339 nM
TGI [29]: > 10000 nM
GI50 [30]: 318 nM
TGI [30]: > 10000 nM
GI50 [31]: 282 nM
TGI [31]: > 10000 nM
GI50 [32]: 241 nM
TGI [32]: > 10000 nM
GI50 [33]: 295 nM
TGI [33]: > 3790 nM
GI50 [34]: 233 nM
TGI [34]: 1000 nM
GI50 [35]: 254 nM
TGI [35]: > 9000 nM
GI50 [36]: 245 nM
TGI [36]: 1100 nM
GI50 [37]: 275 nM
TGI [37]: 863 nM
GI50 [38]: 297 nM
TGI [38]: > 2580 nM
GI50 [39]: 372 nM
TGI [39]: > 8020 nM
GI50 [40]: 276 nM
TGI [40]: > 10000 nM
GI50 [41]: 215 nM
TGI [41]: 553 nM
GI50 [42]: 271 nM
TGI [42]: 1100 nM
GI50 [43]: 192 nM
TGI [43]: 430 nM
GI50 [44]: 228 nM
TGI [44]: 594 nM
GI50 [45]: 357 nM
TGI [45]: 2760 nM
GI50 [46]: 184 nM
TGI [46]: 578 nM
GI50 [47]: 200 nM
TGI [47]: > 10000 nM
GI50 [48]: 361 nM
TGI [48]: 1580 nM
GI50 [49]: 299 nM
TGI [49]: > 10000 nM
GI50 [50]: 278 nM
TGI [50]: 2170 nM
GI50 [51]: 344 nM
TGI [51]: > 10000 nM
GI50 [52]: 258 nM
TGI [52]: > 10000 nM
GI50 [53]: 351 nM
TGI [53]: > 10000 nM
GI50 [54]: 293 nM
TGI [54]: > 10000 nM
GI50 [55]: 107 nM
TGI [55]: 573 nM
GI50 [56]: 270 nM
TGI [56]: 1240 nM
